Columns and labels:
Experiment in all cases: radiometric filter-binding kinase assay
AURKB (human) = AURKB (human) (UniProt Q96GD4)
BRSK1 (human) = BRSK1 (human) (UniProt Q8TDC3)
BTK (human) = BTK (human) (UniProt Q06187)
CAMKK2 (human) = CAMKK2 (human) (UniProt Q96RR4)
CSK (human) = CSK (human) (UniProt P41240)
CSNK1D (human) = CSNK1D (human) (UniProt P48730)
CaMK1 (human) = CaMK1 (human) (UniProt Q14012)
DYRK1A (human) = DYRK1A (human) (UniProt Q13627)
DYRK2 (human) = DYRK2 (human) (UniProt Q92630)
EPHA4 (human) = EPHA4 (human) (UniProt P54764)
EPHB2 (human) = EPHB2 (human) (UniProt P29323)
EPHB3 (human) = EPHB3 (human) (UniProt P54753); settings: compound 50.0 µM
HIPK2 (human) = HIPK2 (human) (UniProt Q9H2X6)
IGF1R (human) = IGF1R (human) (UniProt P08069)
IKBKB (human) = IKBKB (human) (UniProt O14920)
Sequence of IKBKB (human) (O14920 whole entry, looked up): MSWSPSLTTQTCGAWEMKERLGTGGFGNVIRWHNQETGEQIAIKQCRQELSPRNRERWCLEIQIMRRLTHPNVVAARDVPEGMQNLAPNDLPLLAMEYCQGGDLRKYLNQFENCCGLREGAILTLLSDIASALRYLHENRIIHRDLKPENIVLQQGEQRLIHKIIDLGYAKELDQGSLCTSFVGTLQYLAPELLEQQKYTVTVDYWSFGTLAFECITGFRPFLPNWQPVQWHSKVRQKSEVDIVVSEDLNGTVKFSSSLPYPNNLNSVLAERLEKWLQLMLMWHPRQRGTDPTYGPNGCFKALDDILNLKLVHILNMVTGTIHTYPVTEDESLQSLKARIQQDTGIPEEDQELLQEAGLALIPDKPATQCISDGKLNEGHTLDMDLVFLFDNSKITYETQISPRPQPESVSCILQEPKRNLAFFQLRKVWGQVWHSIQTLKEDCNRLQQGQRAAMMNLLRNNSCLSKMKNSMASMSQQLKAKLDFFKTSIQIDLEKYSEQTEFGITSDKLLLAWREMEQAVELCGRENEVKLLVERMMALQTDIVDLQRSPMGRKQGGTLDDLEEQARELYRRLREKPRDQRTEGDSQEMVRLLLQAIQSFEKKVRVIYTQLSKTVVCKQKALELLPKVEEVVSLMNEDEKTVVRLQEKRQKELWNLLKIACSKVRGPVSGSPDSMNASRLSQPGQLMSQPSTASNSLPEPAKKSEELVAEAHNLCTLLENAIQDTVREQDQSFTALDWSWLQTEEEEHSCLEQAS

IKBKE (human) = IKBKE (human) (UniProt Q14164)
MAP2K2 (human) = MAP2K2 (human) (UniProt P36507)
MAP3K11 (human) = MAP3K11 (human) (UniProt Q16584)
MAP3K7 TAB1 (human) = MAP3K7 TAB1 (human) (UniProt Q15750+O43318); settings: compound 10.0 µM
MAPK12 (human) = MAPK12 (human) (UniProt P53778)
Sequence of MAPK12 (human) (P53778 whole entry, looked up): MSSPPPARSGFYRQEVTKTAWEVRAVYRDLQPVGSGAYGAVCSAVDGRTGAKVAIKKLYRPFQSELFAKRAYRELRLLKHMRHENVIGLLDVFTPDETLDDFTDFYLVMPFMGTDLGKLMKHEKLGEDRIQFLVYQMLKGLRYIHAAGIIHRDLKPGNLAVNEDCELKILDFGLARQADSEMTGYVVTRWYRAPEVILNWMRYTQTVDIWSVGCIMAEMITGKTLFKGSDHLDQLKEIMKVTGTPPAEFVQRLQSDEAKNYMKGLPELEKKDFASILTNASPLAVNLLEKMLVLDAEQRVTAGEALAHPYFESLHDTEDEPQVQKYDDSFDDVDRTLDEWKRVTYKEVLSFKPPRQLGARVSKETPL

MAPK14 (human) = MAPK14 (human) (UniProt Q16539)
Sequence of MAPK14 (human) (Q16539 whole entry, looked up): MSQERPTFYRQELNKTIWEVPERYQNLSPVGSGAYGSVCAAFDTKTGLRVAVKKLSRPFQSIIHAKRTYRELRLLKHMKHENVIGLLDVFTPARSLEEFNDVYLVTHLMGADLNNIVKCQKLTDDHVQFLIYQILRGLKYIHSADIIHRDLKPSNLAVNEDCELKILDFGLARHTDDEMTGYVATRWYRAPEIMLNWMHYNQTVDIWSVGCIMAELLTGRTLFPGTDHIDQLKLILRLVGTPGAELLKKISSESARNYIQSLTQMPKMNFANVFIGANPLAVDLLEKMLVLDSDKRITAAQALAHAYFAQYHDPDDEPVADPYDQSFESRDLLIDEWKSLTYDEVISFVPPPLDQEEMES

MAPK15 (human) = MAPK15 (human) (UniProt Q8TD08)
Sequence of MAPK15 (human) (Q8TD08 whole entry, looked up): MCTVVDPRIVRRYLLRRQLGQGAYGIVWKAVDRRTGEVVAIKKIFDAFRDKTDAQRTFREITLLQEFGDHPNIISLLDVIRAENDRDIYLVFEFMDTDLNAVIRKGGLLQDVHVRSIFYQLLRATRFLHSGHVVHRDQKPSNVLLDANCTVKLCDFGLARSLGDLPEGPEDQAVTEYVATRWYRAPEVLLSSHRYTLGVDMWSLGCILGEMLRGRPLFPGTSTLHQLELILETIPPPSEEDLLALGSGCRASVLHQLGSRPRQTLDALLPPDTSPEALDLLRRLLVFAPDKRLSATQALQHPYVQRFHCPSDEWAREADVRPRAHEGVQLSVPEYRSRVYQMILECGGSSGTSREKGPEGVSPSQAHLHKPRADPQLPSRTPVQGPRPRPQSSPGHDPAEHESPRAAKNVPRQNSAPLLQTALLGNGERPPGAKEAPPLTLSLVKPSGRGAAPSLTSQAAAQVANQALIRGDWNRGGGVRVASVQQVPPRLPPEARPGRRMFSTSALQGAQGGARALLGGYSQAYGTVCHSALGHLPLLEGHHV

MAPK8 (human) = MAPK8 (human) (UniProt P45983)
Sequence of MAPK8 (human) (P45983 whole entry, looked up): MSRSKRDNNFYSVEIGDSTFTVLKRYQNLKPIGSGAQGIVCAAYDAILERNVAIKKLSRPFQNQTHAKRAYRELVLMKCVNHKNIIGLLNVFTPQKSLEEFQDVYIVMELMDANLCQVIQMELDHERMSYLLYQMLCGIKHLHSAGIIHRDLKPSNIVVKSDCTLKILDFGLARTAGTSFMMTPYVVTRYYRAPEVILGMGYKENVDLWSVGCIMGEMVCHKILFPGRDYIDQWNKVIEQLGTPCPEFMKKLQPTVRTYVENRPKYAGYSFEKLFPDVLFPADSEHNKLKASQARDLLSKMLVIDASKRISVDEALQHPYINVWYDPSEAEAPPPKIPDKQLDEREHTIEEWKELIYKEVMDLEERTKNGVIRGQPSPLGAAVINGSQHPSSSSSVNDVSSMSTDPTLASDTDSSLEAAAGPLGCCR

MAPK9 (human) = MAPK9 (human) (UniProt P45984); settings: compound 50.0 µM
MAPKAPK2 (human) = MAPKAPK2 (human) (UniProt P49137)
Sequence of MAPKAPK2 (human) (P49137 whole entry, looked up): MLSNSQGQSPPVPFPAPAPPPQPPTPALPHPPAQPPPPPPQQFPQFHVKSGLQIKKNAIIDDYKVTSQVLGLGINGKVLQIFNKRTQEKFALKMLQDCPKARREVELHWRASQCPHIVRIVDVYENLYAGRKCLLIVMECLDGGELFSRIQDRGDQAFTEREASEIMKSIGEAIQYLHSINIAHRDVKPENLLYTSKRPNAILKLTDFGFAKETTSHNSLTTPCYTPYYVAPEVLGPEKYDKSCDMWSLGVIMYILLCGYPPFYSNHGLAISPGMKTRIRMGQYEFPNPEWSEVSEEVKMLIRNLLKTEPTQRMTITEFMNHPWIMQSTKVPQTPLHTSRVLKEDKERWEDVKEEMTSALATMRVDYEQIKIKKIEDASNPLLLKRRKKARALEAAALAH

MAPKAPK5 (human) = MAPKAPK5 (human) (UniProt Q8IW41)
Sequence of MAPKAPK5 (human) (Q8IW41 whole entry, looked up): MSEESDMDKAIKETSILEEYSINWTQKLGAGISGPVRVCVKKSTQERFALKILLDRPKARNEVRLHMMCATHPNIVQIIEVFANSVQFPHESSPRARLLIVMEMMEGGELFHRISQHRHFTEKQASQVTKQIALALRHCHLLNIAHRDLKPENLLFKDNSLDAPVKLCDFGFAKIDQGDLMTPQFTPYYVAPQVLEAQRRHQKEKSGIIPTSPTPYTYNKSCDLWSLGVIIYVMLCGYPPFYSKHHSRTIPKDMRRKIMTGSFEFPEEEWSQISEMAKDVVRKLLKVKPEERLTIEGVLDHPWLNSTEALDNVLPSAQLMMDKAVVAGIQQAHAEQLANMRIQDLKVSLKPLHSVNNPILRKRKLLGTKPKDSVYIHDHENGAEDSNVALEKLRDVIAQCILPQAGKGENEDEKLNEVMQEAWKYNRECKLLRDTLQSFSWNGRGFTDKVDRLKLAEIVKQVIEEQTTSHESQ

MELK (human) = MELK (human) (UniProt Q14680)
MINK1 (human) = MINK1 (human) (UniProt Q8N4C8)
MKNK2 (human) = MKNK2 (human) (UniProt Q9HBH9)
Sequence of MKNK2 (human) (Q9HBH9 whole entry, looked up): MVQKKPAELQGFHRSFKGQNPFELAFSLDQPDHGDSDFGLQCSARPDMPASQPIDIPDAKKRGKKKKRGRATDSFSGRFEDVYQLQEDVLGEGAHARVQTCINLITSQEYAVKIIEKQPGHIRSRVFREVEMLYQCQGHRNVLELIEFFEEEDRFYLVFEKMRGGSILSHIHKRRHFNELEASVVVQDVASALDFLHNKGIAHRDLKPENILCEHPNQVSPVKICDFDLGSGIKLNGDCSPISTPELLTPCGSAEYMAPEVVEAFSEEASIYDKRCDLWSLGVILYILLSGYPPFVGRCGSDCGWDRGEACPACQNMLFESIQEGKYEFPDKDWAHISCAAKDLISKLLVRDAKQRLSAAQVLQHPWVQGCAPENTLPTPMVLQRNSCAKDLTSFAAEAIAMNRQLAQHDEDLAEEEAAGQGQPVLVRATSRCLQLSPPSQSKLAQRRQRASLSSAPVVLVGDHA

PAK4 (human) = PAK4 (human) (UniProt O96013)
PAK7 (human) = PAK7 (human) (UniProt Q9P286)
PIM1 (human) = PIM1 (human) (UniProt P11309)
PRKACA (human) = PRKACA (human) (UniProt P17612)
RIPK2 (human) = RIPK2 (human) (UniProt O43353)
YES1 (human) = YES1 (human) (UniProt P07947)

Sequence of CSNK1D (human) (P48730 whole entry, looked up): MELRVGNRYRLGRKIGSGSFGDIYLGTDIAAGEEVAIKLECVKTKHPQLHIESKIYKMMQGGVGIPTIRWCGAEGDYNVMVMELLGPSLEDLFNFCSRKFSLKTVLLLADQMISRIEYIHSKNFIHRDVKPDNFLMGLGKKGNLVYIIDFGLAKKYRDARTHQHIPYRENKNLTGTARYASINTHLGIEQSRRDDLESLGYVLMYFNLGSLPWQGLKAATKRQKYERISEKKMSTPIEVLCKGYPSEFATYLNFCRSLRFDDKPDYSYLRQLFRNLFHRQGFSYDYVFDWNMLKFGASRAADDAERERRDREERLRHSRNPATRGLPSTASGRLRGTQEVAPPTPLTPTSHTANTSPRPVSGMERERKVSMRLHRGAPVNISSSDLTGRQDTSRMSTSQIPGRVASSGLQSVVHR
Sequence of CaMK1 (human) (Q14012 whole entry, looked up): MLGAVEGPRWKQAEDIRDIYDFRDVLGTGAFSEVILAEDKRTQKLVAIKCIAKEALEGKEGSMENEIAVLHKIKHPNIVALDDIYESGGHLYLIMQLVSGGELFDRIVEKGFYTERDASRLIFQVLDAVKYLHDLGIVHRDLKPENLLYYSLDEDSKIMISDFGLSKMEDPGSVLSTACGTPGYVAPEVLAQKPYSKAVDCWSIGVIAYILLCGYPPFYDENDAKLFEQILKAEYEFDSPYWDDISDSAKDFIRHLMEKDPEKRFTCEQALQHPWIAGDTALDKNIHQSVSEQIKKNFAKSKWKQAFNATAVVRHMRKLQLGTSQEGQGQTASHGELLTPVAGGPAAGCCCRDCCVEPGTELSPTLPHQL
Sequence of AURKB (human) (Q96GD4 whole entry, looked up): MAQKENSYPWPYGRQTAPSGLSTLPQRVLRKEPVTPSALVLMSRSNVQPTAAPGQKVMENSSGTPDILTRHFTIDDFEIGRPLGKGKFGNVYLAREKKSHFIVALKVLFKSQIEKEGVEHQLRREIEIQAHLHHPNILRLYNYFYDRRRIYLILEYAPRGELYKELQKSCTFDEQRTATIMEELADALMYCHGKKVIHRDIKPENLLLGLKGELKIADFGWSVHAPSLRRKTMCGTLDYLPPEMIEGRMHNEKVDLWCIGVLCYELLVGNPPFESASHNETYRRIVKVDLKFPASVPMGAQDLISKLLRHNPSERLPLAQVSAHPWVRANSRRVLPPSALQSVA

Question: `CCCC(CCC)C(=O)O` was tested. Which residual activity (AURKB (human); compound 1.0 µM) did it give?
Answer: 90%

Question: And the residual activity (AURKB (human); compound 10.0 µM)?
Answer: 99%

Question: What about the residual activity (AURKB (human); compound 50.0 µM) of the same compound?
Answer: 83%

Question: And the residual activity (BRSK1 (human); compound 10.0 µM)?
Answer: 102%

Question: What about the residual activity (BRSK1 (human); compound 50.0 µM) of the same compound?
Answer: 124%

Question: What about the residual activity (BTK (human); compound 10.0 µM) of the same compound?
Answer: 104%

Question: What about the residual activity (BTK (human); compound 50.0 µM) of the same compound?
Answer: 94%

Question: And the residual activity (CAMKK2 (human); compound 10.0 µM)?
Answer: 98%

Question: And the residual activity (CAMKK2 (human); compound 50.0 µM)?
Answer: 104%

Question: What about the residual activity (CSK (human); compound 10.0 µM) of the same compound?
Answer: 91%

Question: What about the residual activity (CSK (human); compound 50.0 µM) of the same compound?
Answer: 93%

Question: And the residual activity (CSNK1D (human); compound 1.0 µM)?
Answer: 108%

Question: What about the residual activity (CSNK1D (human); compound 10.0 µM) of the same compound?
Answer: 107%

Question: What about the residual activity (CSNK1D (human); compound 50.0 µM) of the same compound?
Answer: 90%

Question: And the residual activity (CaMK1 (human); compound 1.0 µM)?
Answer: 89%

Question: What about the residual activity (CaMK1 (human); compound 10.0 µM) of the same compound?
Answer: 107%

Question: What about the residual activity (CaMK1 (human); compound 50.0 µM) of the same compound?
Answer: 101%

Question: And the residual activity (DYRK1A (human); compound 1.0 µM)?
Answer: 98%

Question: And the residual activity (DYRK1A (human); compound 50.0 µM)?
Answer: 89%

Question: And the residual activity (DYRK2 (human); compound 10.0 µM)?
Answer: 102%

Question: What about the residual activity (DYRK2 (human); compound 50.0 µM) of the same compound?
Answer: 101%

Question: And the residual activity (EPHA4 (human); compound 10.0 µM)?
Answer: 117%

Question: And the residual activity (EPHA4 (human); compound 50.0 µM)?
Answer: 104%

Question: What about the residual activity (EPHB2 (human); compound 10.0 µM) of the same compound?
Answer: 106%

Question: What about the residual activity (EPHB2 (human); compound 50.0 µM) of the same compound?
Answer: 126%

Question: And the residual activity (EPHB3 (human))?
Answer: 96%

Question: What about the residual activity (HIPK2 (human); compound 10.0 µM) of the same compound?
Answer: 86%

Question: What about the residual activity (HIPK2 (human); compound 50.0 µM) of the same compound?
Answer: 92%

Question: And the residual activity (IGF1R (human); compound 10.0 µM)?
Answer: 76%

Question: And the residual activity (IGF1R (human); compound 50.0 µM)?
Answer: 56%

Question: And the residual activity (IKBKB (human); compound 1.0 µM)?
Answer: 86%

Question: What about the residual activity (IKBKB (human); compound 10.0 µM) of the same compound?
Answer: 79%

Question: What about the residual activity (IKBKB (human); compound 50.0 µM) of the same compound?
Answer: 88%

Question: What about the residual activity (IKBKE (human); compound 10.0 µM) of the same compound?
Answer: 101%

Question: And the residual activity (IKBKE (human); compound 50.0 µM)?
Answer: 81%

Question: And the residual activity (MAP2K2 (human); compound 10.0 µM)?
Answer: 102%

Question: And the residual activity (MAP2K2 (human); compound 50.0 µM)?
Answer: 92%

Question: What about the residual activity (MAP3K11 (human); compound 10.0 µM) of the same compound?
Answer: 104%

Question: And the residual activity (MAP3K11 (human); compound 50.0 µM)?
Answer: 96%

Question: What about the residual activity (MAP3K7 TAB1 (human)) of the same compound?
Answer: 92%

Question: What about the residual activity (MAPK12 (human); compound 1.0 µM) of the same compound?
Answer: 93%

Question: What about the residual activity (MAPK12 (human); compound 10.0 µM) of the same compound?
Answer: 95%

Question: And the residual activity (MAPK12 (human); compound 50.0 µM)?
Answer: 89%

Question: And the residual activity (MAPK14 (human); compound 1.0 µM)?
Answer: 82%

Question: What about the residual activity (MAPK14 (human); compound 10.0 µM) of the same compound?
Answer: 107%

Question: What about the residual activity (MAPK15 (human); compound 1.0 µM) of the same compound?
Answer: 90%

Question: And the residual activity (MAPK15 (human); compound 10.0 µM)?
Answer: 86%

Question: What about the residual activity (MAPK15 (human); compound 50.0 µM) of the same compound?
Answer: 94%

Question: And the residual activity (MAPK8 (human); compound 1.0 µM)?
Answer: 86%

Question: What about the residual activity (MAPK8 (human); compound 10.0 µM) of the same compound?
Answer: 95%

Question: And the residual activity (MAPK8 (human); compound 50.0 µM)?
Answer: 92%

Question: What about the residual activity (MAPK9 (human)) of the same compound?
Answer: 104%

Question: What about the residual activity (MAPKAPK2 (human); compound 1.0 µM) of the same compound?
Answer: 85%

Question: What about the residual activity (MAPKAPK2 (human); compound 10.0 µM) of the same compound?
Answer: 102%

Question: What about the residual activity (MAPKAPK2 (human); compound 50.0 µM) of the same compound?
Answer: 99%

Question: What about the residual activity (MAPKAPK5 (human); compound 1.0 µM) of the same compound?
Answer: 92%

Question: And the residual activity (MAPKAPK5 (human); compound 10.0 µM)?
Answer: 91%

Question: What about the residual activity (MAPKAPK5 (human); compound 50.0 µM) of the same compound?
Answer: 88%

Question: And the residual activity (MELK (human); compound 10.0 µM)?
Answer: 97%

Question: And the residual activity (MELK (human); compound 50.0 µM)?
Answer: 92%

Question: And the residual activity (MINK1 (human); compound 10.0 µM)?
Answer: 68%

Question: And the residual activity (MINK1 (human); compound 50.0 µM)?
Answer: 76%

Question: What about the residual activity (MKNK2 (human); compound 1.0 µM) of the same compound?
Answer: 90%

Question: What about the residual activity (MKNK2 (human); compound 10.0 µM) of the same compound?
Answer: 106%

Question: What about the residual activity (MKNK2 (human); compound 50.0 µM) of the same compound?
Answer: 126%

Question: What about the residual activity (PAK4 (human); compound 10.0 µM) of the same compound?
Answer: 86%

Question: And the residual activity (PAK4 (human); compound 50.0 µM)?
Answer: 90%

Question: And the residual activity (PAK7 (human); compound 10.0 µM)?
Answer: 101%

Question: What about the residual activity (PAK7 (human); compound 50.0 µM) of the same compound?
Answer: 90%

Question: And the residual activity (PIM1 (human); compound 10.0 µM)?
Answer: 98%

Question: And the residual activity (PIM1 (human); compound 50.0 µM)?
Answer: 100%

Question: What about the residual activity (PRKACA (human); compound 1.0 µM) of the same compound?
Answer: 82%

Question: And the residual activity (PRKACA (human); compound 10.0 µM)?
Answer: 91%

Question: What about the residual activity (PRKACA (human); compound 50.0 µM) of the same compound?
Answer: 93%

Question: What about the residual activity (RIPK2 (human); compound 10.0 µM) of the same compound?
Answer: 104%

Question: What about the residual activity (RIPK2 (human); compound 50.0 µM) of the same compound?
Answer: 90%

Question: What about the residual activity (YES1 (human); compound 10.0 µM) of the same compound?
Answer: 91%

Question: And the residual activity (YES1 (human); compound 50.0 µM)?
Answer: 102%
